Patent US11503829B2, “Pesticidal compositions and related methods” (CJB Applied Technologies, LLC, priority 2020, dated 2022)
Where two headings read alike, the source gives them in different places.

Columns and labels:
[1] = test system: black rust (Puccinia graminis tritici); assay type: in vivo; conditions: wheat, tebuconazole 2 fl oz/acre, no adjuvant, 21 days after treatment
[2] = test system: Didymella fungus that is resistant to azoxystrobin; assay: Petri dish radial growth bioassay, agar impregnated with Quadris and/or benzyl alcohol; assay type: cell-based
[3] = test system: natural population of lowland brush; assay: Woody brush control with Metsulfuron Methyl; conditions: MSM 1/5 oz/gal, no adjuvant; scale 1-5
[4] = Quadris 0 oz/ac, Benzyl Alcohol 6 oz/ac

SMILES: CC(C)(C)C(O)(CCc1ccc(Cl)cc1)Cn1cncn1 (stereo not shown) [Teb only, tebuconazole]
- Disease Severity Rating ([1]; mix water 35° F.): 51.3
- Disease Severity Rating ([1]; mix water 70° F.): 47

SMILES: OCc1ccccc1 [Benzyl Alcohol only, benzyl alcohol]
- Radial growth, 24 Hours [2, 4]: 4.83
- Radial growth, 48 Hours [2, 4]: 8.42
- Radial growth, 72 Hours [2, 4]: 8.7
- Radial growth, 96 Hours [2, 4]: 13.98
- Radial growth, 120 Hours [2, 4]: 18.72
- Radial growth, 144 Hours [2, 4]: 25.05
- Reduction in fungal growth (observation) ([2]; benzyl alcohol alone, petri dish): no reduction in fungal growth

SMILES: COC(=O)c1ccccc1S(=O)(=O)NC(=O)Nc1nc(C)nc(OC)n1 [MSM Alone]
- Observation at 28 DAT [3]: 2.0
